Test results: the CheMixHub viscosity set
“And” between values parts separate entries of the source, which are not always exact repeats. Identical values can stand only once.

Experiment: xn = mol fraction of the nth substance listed

C[N+](C)(C)CCO.[Cl-] + OCCO
Conditions | viscosity
293.15 K, 100 kPa, x1 = 0.333 | 40.01 mPa·s
293.15 K, 100 kPa, x1 = 0.34 | 59.14 mPa·s
293.15 K, 101 kPa, x1 = 0.333 | 42.3 mPa·s
293.15 K, 101 kPa, x2 = 0.7 | 56.22 mPa·s
293.15 K, 101.3 kPa, x2 = 0.6675 | 60 mPa·s
293.15 K, 101.3 kPa, x2 = 0.7 | 53.07 mPa·s
293.15 K, 101.3 kPa, x2 = 0.7499 | 37.35 mPa·s
293.15 K, 101.3 kPa, x2 = 0.7999 | 31.8 mPa·s
293.15 K, 101.3 kPa, x2 = 0.8332 | 28.49 mPa·s
293.15 K, 101.3 kPa, x2 = 0.8571 | 25.56 mPa·s
298 K, 100 kPa, x1 = 0.333 | 45.1 mPa·s
298 K, 101 kPa, x1 = 0.333 | 42 mPa·s
298.15 K, 100 kPa, x1 = 0.333 | 41 mPa·s and 32.73 mPa·s
298.15 K, 100 kPa, x1 = 0.34 | 47.74 mPa·s
298.15 K, 101 kPa, x1 = 0.2 | 20.1 mPa·s
298.15 K, 101 kPa, x1 = 0.333 | 35.1 mPa·s
298.15 K, 101.1 kPa, x1 = 0.333 | 39.45 mPa·s
298.15 K, 101.3 kPa, x2 = 0.6675 | 48.59 mPa·s
298.15 K, 101.3 kPa, x2 = 0.7 | 43.03 mPa·s
298.15 K, 101.3 kPa, x2 = 0.7499 | 31.12 mPa·s
298.15 K, 101.3 kPa, x2 = 0.7999 | 26.21 mPa·s
298.15 K, 101.3 kPa, x2 = 0.8332 | 23.36 mPa·s
298.15 K, 101.3 kPa, x2 = 0.8571 | 20.93 mPa·s
298.15 K, 101.33 kPa, x2 = 0.7 | 48 mPa·s
298.2 K, 101.3 kPa, x1 = 0.1247 | 20.5 mPa·s
298.2 K, 101.3 kPa, x1 = 0.1675 | 23.2 mPa·s
298.2 K, 101.3 kPa, x1 = 0.2 | 24.5 mPa·s
298.2 K, 101.3 kPa, x1 = 0.2513 | 27.2 mPa·s
303 K, 100 kPa, x1 = 0.333 | 36.8 mPa·s
303 K, 101 kPa, x1 = 0.3333 | 51.8 mPa·s
303.15 K, 100 kPa, x1 = 0.333 | 27.13 mPa·s and 52.15 mPa·s
303.15 K, 100 kPa, x1 = 0.34 | 39.1 mPa·s
303.15 K, 101 kPa, x1 = 0.333 | 33.1 mPa·s
303.15 K, 101 kPa, x2 = 0.7 | 35 mPa·s and 37.15 mPa·s
303.15 K, 101.3 kPa, x2 = 0.6675 | 39.78 mPa·s
303.15 K, 101.3 kPa, x2 = 0.7 | 35.06 mPa·s
303.15 K, 101.3 kPa, x2 = 0.7499 | 25.72 mPa·s
303.15 K, 101.3 kPa, x2 = 0.7999 | 21.7 mPa·s
303.15 K, 101.3 kPa, x2 = 0.8332 | 19.36 mPa·s
303.15 K, 101.3 kPa, x2 = 0.8571 | 17.34 mPa·s
308 K, 100 kPa, x1 = 0.333 | 30.8 mPa·s
308 K, 101 kPa, x1 = 0.3333 | 45.7 mPa·s
308.15 K, 100 kPa, x1 = 0.333 | 22.76 mPa·s
308.15 K, 100 kPa, x1 = 0.34 | 32.42 mPa·s
308.15 K, 101 kPa, x1 = 0.3333 | 30.9 mPa·s
308.15 K, 101.3 kPa, x2 = 0.6675 | 33.15 mPa·s
308.15 K, 101.3 kPa, x2 = 0.7 | 29.02 mPa·s
308.15 K, 101.3 kPa, x2 = 0.7499 | 21.63 mPa·s
308.15 K, 101.3 kPa, x2 = 0.7999 | 18.29 mPa·s
308.15 K, 101.3 kPa, x2 = 0.8332 | 16.22 mPa·s
308.15 K, 101.3 kPa, x2 = 0.8571 | 14.52 mPa·s
308.2 K, 101.3 kPa, x1 = 0.1247 | 15.3 mPa·s
308.2 K, 101.3 kPa, x1 = 0.1675 | 17.4 mPa·s
308.2 K, 101.3 kPa, x1 = 0.2 | 18.6 mPa·s
308.2 K, 101.3 kPa, x1 = 0.2513 | 20.7 mPa·s
313 K, 100 kPa, x1 = 0.333 | 26 mPa·s
313 K, 101 kPa, x1 = 0.333 | 23 mPa·s
313 K, 101 kPa, x1 = 0.3333 | 40.7 mPa·s
313.15 K, 100 kPa, x1 = 0.333 | 19.32 mPa·s and 41.27 mPa·s
313.15 K, 100 kPa, x1 = 0.34 | 27.44 mPa·s
313.15 K, 101 kPa, x1 = 0.333 | 26.3 mPa·s
313.15 K, 101 kPa, x1 = 0.3333 | 25.8 mPa·s
313.15 K, 101 kPa, x2 = 0.7 | 25.84 mPa·s
313.15 K, 101.3 kPa, x2 = 0.6675 | 27.77 mPa·s
313.15 K, 101.3 kPa, x2 = 0.7 | 24.22 mPa·s
313.15 K, 101.3 kPa, x2 = 0.7499 | 18.27 mPa·s
313.15 K, 101.3 kPa, x2 = 0.7999 | 15.52 mPa·s
313.15 K, 101.3 kPa, x2 = 0.8332 | 13.72 mPa·s
313.15 K, 101.3 kPa, x2 = 0.8571 | 12.3 mPa·s
318 K, 100 kPa, x1 = 0.333 | 21.6 mPa·s
318 K, 101 kPa, x1 = 0.3333 | 36.4 mPa·s
318.15 K, 100 kPa, x1 = 0.333 | 16.57 mPa·s
318.15 K, 100 kPa, x1 = 0.34 | 23.03 mPa·s
318.15 K, 101 kPa, x1 = 0.2 | 10.5 mPa·s
318.15 K, 101 kPa, x1 = 0.333 | 15.6 mPa·s
318.15 K, 101 kPa, x1 = 0.3333 | 21.9 mPa·s
318.15 K, 101.3 kPa, x2 = 0.6675 | 23.61 mPa·s
318.15 K, 101.3 kPa, x2 = 0.7 | 20.47 mPa·s
318.15 K, 101.3 kPa, x2 = 0.7499 | 15.68 mPa·s
318.15 K, 101.3 kPa, x2 = 0.7999 | 13.3 mPa·s
318.15 K, 101.3 kPa, x2 = 0.8332 | 11.67 mPa·s
318.15 K, 101.3 kPa, x2 = 0.8571 | 10.51 mPa·s
318.2 K, 101.3 kPa, x1 = 0.1247 | 11.4 mPa·s
318.2 K, 101.3 kPa, x1 = 0.1675 | 13.1 mPa·s
318.2 K, 101.3 kPa, x1 = 0.2 | 14.2 mPa·s
318.2 K, 101.3 kPa, x1 = 0.2513 | 16.3 mPa·s
323 K, 100 kPa, x1 = 0.333 | 18.8 mPa·s
323 K, 101 kPa, x1 = 0.333 | 16 mPa·s
323 K, 101 kPa, x1 = 0.3333 | 32.8 mPa·s
323.15 K, 100 kPa, x1 = 0.333 | 14.33 mPa·s and 33.33 mPa·s
323.15 K, 101 kPa, x1 = 0.333 | 21.2 mPa·s
323.15 K, 101 kPa, x1 = 0.3333 | 18.8 mPa·s
323.15 K, 101.3 kPa, x2 = 0.6675 | 20.3 mPa·s
323.15 K, 101.3 kPa, x2 = 0.7 | 17.41 mPa·s
323.15 K, 101.3 kPa, x2 = 0.7499 | 13.57 mPa·s
323.15 K, 101.3 kPa, x2 = 0.7999 | 11.5 mPa·s
323.15 K, 101.3 kPa, x2 = 0.8332 | 9.98 mPa·s
323.15 K, 101.3 kPa, x2 = 0.8571 | 9.07 mPa·s
